The values below come from publication PMC6185959 (2018).

Assay [1] deals with Alexa Fluor 647-Pu27 (MYC G4) (DNA, G4) TGGGGAGGGTGGGGAGGGTGGGGAAGG
As to the kind of experiment: fluorescence intensity titration. The settings on record: 50 mM KCl, 25 mM Tris pH 6.4, 2-3% DMSO, RT, 50 nM oligo, 2:1 model.

The subject of assay [2] is Pu22 (MYC G4) (DNA, G4) TGAGGGTGGGGAGGGTGGGGAA
Put plainly: WaterLOGSY NMR. The settings on record: 50 mM KCl, Tris-d11 pH 6.4, 20 °C, 5 µM oligo, 100 µM compound.

The subject of assay [3] is HIF1a (DNA, G4) GGGAGGGAGAGGGGGCGGG
As to the kind of experiment: CD melting. As to conditions: 30 mM KCl; 10 mM Tris pH 6.3, 1% DMSO; 10 µM oligo, 40 µM compound.

Assay [4] has as its system dsDNA (DNA, duplex) CAATCGGATCGAATTCGATCCGATTG
As to the kind of experiment: CD melting. The settings on record: 30 mM KCl; 10 mM Tris pH 6.3, 1% DMSO; 10 µM oligo, 40 µM compound.

The test system of assay [5] is Alexafluor647-BCL2 (DNA, G4) AGGGGCGGGCGCGGGAGGAAGGGGGCGGGA
Put plainly: fluorescence intensity titration. As to conditions: 50 mM KCl; 25 mM Tris pH 6.4, 2-3% DMSO, RT; 50 nM oligo; 2:1 model.

The subject of assay [6] is Alexafluor647-NRAS (RNA, G4) UGUGGGAGGGGCGGGUCUGGG
As to the kind of experiment: fluorescence intensity titration. The settings on record: 50 mM KCl; 25 mM Tris pH 6.4, 2-3% DMSO, RT; 50 nM oligo; 2:1 model.

The test system of assay [7] is 333 (DNA, G4) TGAGGGTTAGGGTAAGGGTTAGGGTAA
Put plainly: CD melting. The settings on record: 30 mM KCl; 10 mM Tris pH 6.3, 1% DMSO; 10 µM oligo, 40 µM compound.

For assay [8], the system named is Alexafluor647-KRAS (DNA, G4) AGGGCGGTGTGGGAAGAGGGAAGAGGGGGAGGCAG
Put plainly: fluorescence intensity titration. The settings on record: 50 mM KCl; 25 mM Tris pH 6.4, 2-3% DMSO, RT; 50 nM oligo; 2:1 model.

Assay [9] relates to no tail (DNA, G4) GGGTGGGGAGGGTGGG
As to the kind of experiment: CD melting. As to conditions: 30 mM KCl; 10 mM Tris pH 6.3, 1% DMSO; 10 µM oligo, 40 µM compound.

In assay [10] the test system is MYB (DNA, G4) GGAGGAGGAGGTCACGGAGGAGGAGGAGAAGGAGGAGGAGGA
As to the kind of experiment: CD melting. As to conditions: 30 mM KCl; 10 mM Tris pH 6.3, 1% DMSO; 10 µM oligo, 40 µM compound.

Assay [11] has as its system MYC Pu22 G14T/G23T (NMR, 121) (DNA, G4) TGAGGGTGGGTAGGGTGGGTAA
As to the kind of experiment: solution NMR structure. The settings on record: 50 mM KCl; 25 mM Tris-d11 pH 6.4, 25 °C; twofold excess compound; 5' and 3' tetrads.

The test system of assay [12] is Alexafluor647-Telomeric DNA (DNA, G4) TTAGGGTTAGGGTTAGGGTTAGGGTTA
As to the kind of experiment: fluorescence intensity titration. The settings on record: 50 mM KCl; 25 mM Tris pH 6.4, 2-3% DMSO, RT; 50 nM oligo; 2:1 model.

Assay [13] has as its system Pu22 (MYC G4) (DNA, G4) TGAGGGTGGGGAGGGTGGGGAA
Put plainly: CD melting. As to conditions: 30 mM KCl; 10 mM Tris pH 6.3, 1% DMSO; 10 µM oligo, 40 µM compound; Table S2 prints 7.6 ± 0.5.

In assay [14] the test system is 221 (DNA, G4) TGAGGGTAGGGTAGGGTGGGTAA
Put plainly: CD melting. The settings on record: 30 mM KCl; 10 mM Tris pH 6.3, 1% DMSO; 10 µM oligo, 40 µM compound.

Assay [15] has as its system GAT Tail (A25T) (DNA, G4) TGAGGGTGGGGAGGGTGGGGAT
As to the kind of experiment: CD melting. The settings on record: 30 mM KCl; 10 mM Tris pH 6.3, 1% DMSO; 10 µM oligo, 40 µM compound.

For assay [16], the system named is 5'-biotin Pu27 (MYC G4) (DNA, G4) TGGGGAGGGTGGGGAGGGTGGGGAAGG
Put plainly: SPR. As to conditions: 30 mM KCl; 10 mM Tris pH 6.4, 3% DMSO, 0.01% Tween-20; 1:1 Langmuir, highest affinity site.

Assay [17] relates to Pu27 (MYC G4) (DNA, G4) TGGGGAGGGTGGGGAGGGTGGGGAAGG
Put plainly: CD melting. As to conditions: 30 mM KCl; 10 mM Tris pH 6.3, 1% DMSO; 10 µM oligo, 40 µM compound.

The subject of assay [18] is Alexafluor647-VEGF (DNA, G4) CGGGGCGGGCCGGGGGCGGGGT
As to the kind of experiment: fluorescence intensity titration. The settings on record: 50 mM KCl; 25 mM Tris pH 6.4, 2-3% DMSO, RT; 50 nM oligo; 2:1 model.

Assay [19] has as its system 131 (DNA, G4) TGAGGGTGGGTAAGGGTGGGTAA
As to the kind of experiment: CD melting. The settings on record: 30 mM KCl; 10 mM Tris pH 6.3, 1% DMSO; 10 µM oligo, 40 µM compound.

The subject of assay [20] is MYC Pu22 G14T/G23T (NMR, 121) (DNA, G4) TGAGGGTGGGTAGGGTGGGTAA
Put plainly: 1H NMR titration, imino shifts. The settings on record: 50 mM KCl; 25 mM Tris-d11 pH 6.4, 10% DMSO-d6, 25 °C; overall KD, non-cooperative fit.

Assay [21] concerns BCl2 (DNA, G4) AGGGGCGGGCGCGGGAGGAAGGGGGCGGGA
Put plainly: CD melting. As to conditions: 30 mM KCl; 10 mM Tris pH 6.3, 1% DMSO; 10 µM oligo, 40 µM compound.

Assay [22] concerns 122 (DNA, G4) TGAGGGTGGGTAGGGTAGGGTAA
Put plainly: CD melting. As to conditions: 30 mM KCl; 10 mM Tris pH 6.3, 1% DMSO; 10 µM oligo, 40 µM compound.

Broadly, the KD is the constant that tells how readily two partners part at equilibrium. Usually ΔTm stands for the shift of the melting midpoint relative to a reference.

For `Cc1ccc(NC(=O)c2c(C)oc3ccc(O)c(CN4CCCCCC4)c23)cc1`, in assay [1], the KD came to 0.0232 ± 0.0076 mM.
For `CN[C@H](C(=O)O)C(C)C`, the binding result in assay [2] (internal non-binding control) was “no”.
As for `Cc1oc2ccc(O)c(CN3CCCCCC3)c2c1C(=O)Nc1ccc(C(F)(F)F)cc1`, the ΔTm in assay [3] worked out at 0.2 ± 1.1 °C; in assay [4] it was 0.6 ± 0.7 °C; in assay [7] it was 0.0 ± 1.0 °C; in assay [9], 4.3 ± 1.7 °C; in assay [10], 1.5 ± 0.3 °C; in assay [13] it was 7.4 ± 0.5 °C. Besides, the ΔTm was determined as 4.0 ± 1.0 °C in assay [14]; 4.5 ± 0.8 °C in assay [15]; 7.5 ± 2.0 °C in assay [17]; 4.6 ± 0.3 °C in [19]; 4.2 ± 0.4 °C in [21]; 7.0 ± 0.3 °C in assay [22]. For the same molecule, the KD in [5] came out at 0.0173 ± 0.0044 mM; in assay [8] it was 0.0442 ± 0.0038 mM; in assay [12], 0.0403 ± 0.01 mM; in assay [1] (Table S1 prints 9.1 ± 1.1) it was 0.0094 ± 0.0011 mM; in assay [16] it was 1.4 ± 1.2 µM; in assay [18], 0.0183 ± 0.0034 mM. For the same molecule, the KD in assay [20] was found to be 0.0165 ± 0.0011 mM. Also, the binding result in assay [6] is reported as “weak”; in assay [11] it was “yes”; in assay [2], “yes”.
